# Target: Procathepsin L (Homo sapiens, UniProt P07711)
# Experiment: Inhibition of cathepsin L
# Procathepsin L, sequence (P07711 whole entry): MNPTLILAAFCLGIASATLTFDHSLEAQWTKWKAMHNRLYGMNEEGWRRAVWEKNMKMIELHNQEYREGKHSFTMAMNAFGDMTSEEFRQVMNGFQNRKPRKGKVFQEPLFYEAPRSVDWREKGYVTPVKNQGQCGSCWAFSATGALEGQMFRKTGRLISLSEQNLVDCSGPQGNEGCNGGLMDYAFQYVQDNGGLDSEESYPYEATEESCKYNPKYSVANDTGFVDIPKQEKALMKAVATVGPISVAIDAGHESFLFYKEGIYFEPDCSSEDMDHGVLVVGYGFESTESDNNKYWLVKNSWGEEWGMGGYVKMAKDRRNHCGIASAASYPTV
row,SMILES,IC50
1,CCN(CC)C(=O)CSc1nnc([C@@H](N)Cc2c[nH]c3ccccc23)o1,510 nM
2,"Cc1cccc(NC(=O)CSc2nnc(C(N)Cc3c[nH]c4ccccc34)o2)c1C (single isomer, unassigned)",300 nM
3,"CCc1ccccc1NC(=O)CSc1nnc(C(N)Cc2c[nH]c3ccccc23)o1 (single isomer, unassigned)",130 nM
4,CN(C)C(=O)CSc1nnc([C@@H](N)Cc2c[nH]c3ccccc23)o1,170 nM
5,CCc1ccccc1NC(=O)CSC(=O)NNC(=O)[C@@H](N)Cc1c[nH]c2ccccc12,133 nM
6,"Cc1ccc(NC(=O)CSc2nnc(C(N)Cc3c[nH]c4ccccc34)o2)c(C)c1 (single isomer, unassigned)",160 nM

# Source: ChEMBL document CHEMBL1143859, “Identification and synthesis of a unique thiocarbazate cathepsin L inhibitor” (Bioorg Med Chem Lett, 2008)
